Earlier results on one compound are cited in US20050101653A1, “Combination therapy for the treatment of migraine” (priority 1999, published 2005).

The test system of this data set is carotid vascular resistance. Conditions: anaesthetized dog.

Turning to `CNS(=O)(=O)Cc1ccc2[nH]cc(CCN(C)C)c2c1` [Sumatriptan, sumatriptan], the “effect on carotid vascular resistance” value is recorded as “selective increase in carotid vascular resistance”.
